Columns and labels:
[1] = target: T1, Laconic (LldR from Escherichia coli between mTFP and Venus) (Escherichia coli, UniProt P0ACL7); experiment: FRET ratio mTFP/Venus, purified sensor; format: binding; conditions: 1 mM citrate without lactate; intracellular buffer pH 7.0
T1 construct: variant 04
T1 sequence (P0ACL7 1-258): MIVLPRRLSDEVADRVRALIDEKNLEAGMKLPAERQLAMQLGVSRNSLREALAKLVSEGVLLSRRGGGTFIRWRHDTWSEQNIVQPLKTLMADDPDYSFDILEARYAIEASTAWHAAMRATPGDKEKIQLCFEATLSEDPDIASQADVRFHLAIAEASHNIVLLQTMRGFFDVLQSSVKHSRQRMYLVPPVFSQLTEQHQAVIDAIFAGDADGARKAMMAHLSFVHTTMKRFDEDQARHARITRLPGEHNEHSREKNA

[2] = target: T1, Laconic (LldR from Escherichia coli between mTFP and Venus); experiment: FRET ratio mTFP/Venus, purified sensor; format: binding; conditions: 0.25, 1 or 10 mM pyruvate with lactate dose-response; effect by interference with lactate; intracellular buffer pH 7.0

Row | Structure (SMILES) | % increase of FRET ratio at 1 mM [1] [%] | FRET ratio mTFP/Venus, purified sensor [2]
1 | O=C(O)CC(O)(CC(=O)O)C(=O)O [citrate] | 6 | –
2 | CC(=O)C(=O)O [pyruvate] | – | at high concentrations, pyruvate blocked the effect of low lactate
